# Measurements reported in PubChem BioAssay (NCI).
#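 A five-concentration, 48-hour dose response in 96-well plates underlies each endpoint, interpolated linearly between surrounding concentrations. TGI denotes the concentration required for complete inhibition of growth.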
# Legend:
# Experiment in all cases: growth of human tumour cells (NCI), 48 h
# NCI-H23 lung = tested on: NCI-H23 lung
# ACHN renal = tested on: ACHN renal
# SF-268 CNS = tested on: SF-268 CNS
# K-562 leukemia = tested on: K-562 leukemia
# SNB-19 CNS = tested on: SNB-19 CNS
# OVCAR-5 ovarian = tested on: OVCAR-5 ovarian
# MOLT-4 leukemia = tested on: MOLT-4 leukemia
# A549 NSCLC = tested on: A549 NSCLC
# SN12C renal = tested on: SN12C renal
# HL-60(TB) leukemia = tested on: HL-60(TB) leukemia
# PC-3 prostate = tested on: PC-3 prostate
# U251 CNS = tested on: U251 CNS
# HT29 colon = tested on: HT29 colon
# CCRF-CEM leukemia = tested on: CCRF-CEM leukemia
# OVCAR-3 ovarian = tested on: OVCAR-3 ovarian
# SK-OV-3 ovarian = tested on: SK-OV-3 ovarian
# OVCAR-8 ovarian = tested on: OVCAR-8 ovarian
# HCT-15 colon = tested on: HCT-15 colon
# DU-145 prostate = tested on: DU-145 prostate
# HCT-116 colon = tested on: HCT-116 colon
# RXF 393 renal = tested on: RXF 393 renal
# OVCAR-4 ovarian = tested on: OVCAR-4 ovarian
# HOP-92 NSCLC = tested on: HOP-92 NSCLC
# MDA-MB-435 = tested on: MDA-MB-435
# SK-MEL-2 melanoma = tested on: SK-MEL-2 melanoma
# SK-MEL-5 melanoma = tested on: SK-MEL-5 melanoma
# COLO 205 colon = tested on: COLO 205 colon
# EKVX NSCLC = tested on: EKVX NSCLC
# T-47D breast = tested on: T-47D breast
# HOP-62 NSCLC = tested on: HOP-62 NSCLC
# SK-MEL-28 melanoma = tested on: SK-MEL-28 melanoma
# KM12 colon = tested on: KM12 colon
# M14 melanoma = tested on: M14 melanoma
# MDA-MB-231 breast = tested on: MDA-MB-231 breast
# HS 578T breast = tested on: HS 578T breast
# HCC-2998 colon = tested on: HCC-2998 colon
# BT-549 breast = tested on: BT-549 breast
# SR leukemia = tested on: SR leukemia
# 786-0 renal = tested on: 786-0 renal
# MCF7 breast = tested on: MCF7 breast
# TK-10 renal = tested on: TK-10 renal
# NCI-H460 lung = tested on: NCI-H460 lung
# UACC-257 melanoma = tested on: UACC-257 melanoma
# MALME-3M melanoma = tested on: MALME-3M melanoma
# NCI-H226 lung = tested on: NCI-H226 lung
# SNB-75 CNS = tested on: SNB-75 CNS
# IGROV1 ovarian = tested on: IGROV1 ovarian
# MDA-N = tested on: MDA-N
# CAKI-1 renal = tested on: CAKI-1 renal
# SF-295 CNS = tested on: SF-295 CNS
# SF-539 CNS = tested on: SF-539 CNS
# NCI/ADR-RES ovarian = tested on: NCI/ADR-RES ovarian
# LOX IMVI melanoma = tested on: LOX IMVI melanoma
# NCI-H522 lung = tested on: NCI-H522 lung
# UACC-62 melanoma = tested on: UACC-62 melanoma
# SW-620 colon = tested on: SW-620 colon
# UO-31 renal = tested on: UO-31 renal
# RPMI-8226 leukemia = tested on: RPMI-8226 leukemia
# A498 renal = tested on: A498 renal
compound,measurement,setting,value
C=C1CC2(CC(c3ccccc3OC)OC(c3ccccc3OC)C2)OC1=O (stereo not drawn),TGI,NCI-H23 lung,4.62 µM
same,TGI,ACHN renal,5.41 µM
same,TGI,SF-268 CNS,6.41 µM
same,TGI,K-562 leukemia,5.32 µM
same,TGI,SNB-19 CNS,14 µM
same,TGI,OVCAR-5 ovarian,18.6 µM
same,TGI,MOLT-4 leukemia,5.52 µM
same,TGI,A549 NSCLC,11.2 µM
same,TGI,SN12C renal,4.05 µM
same,TGI,HL-60(TB) leukemia,3.51 µM
same,TGI,PC-3 prostate,4.33 µM
same,TGI,U251 CNS,13.6 µM
same,TGI,HT29 colon,4.32 µM
same,TGI,CCRF-CEM leukemia,4.47 µM
same,TGI,OVCAR-3 ovarian,3.7 µM
same,TGI,SK-OV-3 ovarian,25.5 µM
same,TGI,OVCAR-8 ovarian,3.56 µM
same,TGI,HCT-15 colon,4.5 µM
same,TGI,DU-145 prostate,20.2 µM
same,TGI,HCT-116 colon,3.3 µM
same,TGI,RXF 393 renal,3.31 µM
same,TGI,OVCAR-4 ovarian,11 µM
same,TGI,HOP-92 NSCLC,3.09 µM
same,TGI,MDA-MB-435,3.56 µM
same,TGI,SK-MEL-2 melanoma,3.45 µM
same,TGI,SK-MEL-5 melanoma,7.05 µM
same,TGI,COLO 205 colon,4.06 µM
same,TGI,EKVX NSCLC,27.7 µM
same,TGI,T-47D breast,3.4 µM
same,TGI,HOP-62 NSCLC,26.8 µM
same,TGI,SK-MEL-28 melanoma,2.17 µM
same,TGI,KM12 colon,6.65 µM
same,TGI,M14 melanoma,3.35 µM
same,TGI,MDA-MB-231 breast,3.45 µM
same,TGI,HS 578T breast,4.9 µM
same,TGI,HCC-2998 colon,5.92 µM
same,TGI,BT-549 breast,3.12 µM
same,TGI,SR leukemia,4.92 µM
same,TGI,786-0 renal,3.01 µM
same,TGI,MCF7 breast,3.32 µM
same,TGI,TK-10 renal,4.31 µM
same,TGI,NCI-H460 lung,17.7 µM
same,TGI,UACC-257 melanoma,4.23 µM
same,TGI,MALME-3M melanoma,3.31 µM
same,TGI,NCI-H226 lung,19.4 µM
same,TGI,SNB-75 CNS,9.09 µM
same,TGI,IGROV1 ovarian,3.37 µM
same,TGI,MDA-N,3.44 µM
same,TGI,CAKI-1 renal,7.13 µM
same,TGI,SF-295 CNS,14.4 µM
same,TGI,SF-539 CNS,4.95 µM
same,TGI,NCI/ADR-RES ovarian,7.73 µM
same,TGI,LOX IMVI melanoma,2.98 µM
same,TGI,NCI-H522 lung,2.98 µM
same,TGI,UACC-62 melanoma,4.26 µM
same,TGI,SW-620 colon,4.03 µM
same,TGI,UO-31 renal,2.85 µM
same,TGI,RPMI-8226 leukemia,1.45 µM
same,TGI,A498 renal,12.1 µM
CCCCCC(=O)Nc1n[nH]nc1C#N,TGI,NCI-H23 lung,> 100 µM
same,TGI,ACHN renal,> 100 µM
same,TGI,SF-268 CNS,> 100 µM
same,TGI,K-562 leukemia,> 100 µM
same,TGI,SNB-19 CNS,> 100 µM
same,TGI,OVCAR-5 ovarian,> 100 µM
same,TGI,MOLT-4 leukemia,> 100 µM
same,TGI,A549 NSCLC,> 100 µM
same,TGI,SN12C renal,> 100 µM
same,TGI,HL-60(TB) leukemia,> 100 µM
same,TGI,PC-3 prostate,> 100 µM
same,TGI,U251 CNS,> 100 µM
same,TGI,HT29 colon,> 100 µM
same,TGI,CCRF-CEM leukemia,> 100 µM
same,TGI,OVCAR-3 ovarian,> 100 µM
same,TGI,SK-OV-3 ovarian,> 100 µM
same,TGI,OVCAR-8 ovarian,> 100 µM
same,TGI,HCT-15 colon,> 100 µM
same,TGI,DU-145 prostate,> 100 µM
same,TGI,HCT-116 colon,> 100 µM
same,TGI,RXF 393 renal,> 100 µM
same,TGI,OVCAR-4 ovarian,> 100 µM
same,TGI,HOP-92 NSCLC,> 100 µM
same,TGI,MDA-MB-435,> 100 µM
same,TGI,SK-MEL-2 melanoma,> 100 µM
same,TGI,SK-MEL-5 melanoma,> 100 µM
same,TGI,COLO 205 colon,> 100 µM
same,TGI,EKVX NSCLC,> 100 µM
same,TGI,T-47D breast,> 100 µM
same,TGI,HOP-62 NSCLC,> 100 µM
same,TGI,SK-MEL-28 melanoma,> 100 µM
same,TGI,KM12 colon,> 100 µM
same,TGI,M14 melanoma,> 100 µM
same,TGI,MDA-MB-231 breast,> 100 µM
same,TGI,HS 578T breast,> 100 µM
same,TGI,HCC-2998 colon,> 100 µM
same,TGI,BT-549 breast,> 100 µM
same,TGI,SR leukemia,> 100 µM
same,TGI,786-0 renal,> 100 µM
same,TGI,MCF7 breast,> 100 µM
same,TGI,TK-10 renal,> 100 µM
same,TGI,NCI-H460 lung,> 100 µM
same,TGI,UACC-257 melanoma,> 100 µM
same,TGI,MALME-3M melanoma,> 100 µM
same,TGI,NCI-H226 lung,> 100 µM
same,TGI,SNB-75 CNS,> 100 µM
same,TGI,IGROV1 ovarian,> 100 µM
same,TGI,MDA-N,> 100 µM
same,TGI,CAKI-1 renal,> 100 µM
same,TGI,SF-295 CNS,> 100 µM
same,TGI,SF-539 CNS,> 100 µM
same,TGI,NCI/ADR-RES ovarian,> 100 µM
same,TGI,LOX IMVI melanoma,> 100 µM
same,TGI,NCI-H522 lung,> 100 µM
same,TGI,UACC-62 melanoma,> 100 µM
same,TGI,SW-620 colon,> 100 µM
same,TGI,UO-31 renal,> 100 µM
same,TGI,RPMI-8226 leukemia,> 100 µM
same,TGI,A498 renal,> 100 µM
